Reference: patent US20040091477A1, “Immunosuppresive compositions” (priority 2003, published 2004)
Marks after values point to notes of the source that are not given here.

Legend:
[1] = target: platelet activating factor receptor (PAFR) (Homo sapiens, UniProt P25105); details: cited from earlier work
[2] = Schussler et al. 1995; cited from earlier work
[3] = system: cAMP-specific phosphodiesterase; details: cited from earlier work
[4] = cited from earlier work
isolated rat hearts [5] = test: Reperfusion-induced arrhythmias (VF, VT) in isolated hearts of orally treated rats, 30 min global ischemia and 2 hours reperfusion; type: in vivo; details: control 92%
Protocol: (§1) Male Sprague-Dawley rats were used for all studies. Rats were anesthetized with intraperitoneal pentobarbital sodium (60 mg/kg body weight) and then given intravenous heparin (500 IU/kg). After thoracotomy, the heart was excised and placed in ice cold perfusion buffer. Immediately after preparation, the aorta was cannulated, and the heart was perfused according to Langendorf method for a 5-min washout period at a constant perfusion pressure equivalent to 100 cm of water (10 kPa). The perfusion medium consisted of a modified Krebs-Henseleit bicarbonate buffer: 118 mM NaCl, 4.7 mM KCl, 1.7 mM CaCl2, 25 mM NaHCO3, 0.36 mM KH2PO4, 1.2 mM MgSO4, and 10 mM glucose. The left atrium was cannulated and the Langendorff system was switched to the working mode with a left atrial filling pressure of 17 cm of buffer (1.7 kPa) and aortic afterload pressure of 100 cm (10 kPa) of buffer. Aortic flow was measured by a calibrated rotameter, and coronary flow rate was measured by a timed collection of the coronary perfusate that dripped from the heart. After 10 min aerobic perfusion of the heart, the atrial inflow and aortic outflow lines were clamped at a point close to the origin of the aortic cannula. Reperfusion was initiated by unclamping the atrial inflow and aortic outflow lines. […] An epicardial ECG was recorded by a polygraph throughout the experimental period by two silver electrodes attached directly to the heart. ECGs were analyzed to determine the incidence of ventricular fibrillation (VF) and ventricular tachycardia (VT) and whether VF was non-sustained (spontaneously reverting to regular rhythm) or sustained (persisting through the first 3 min of reperfusion). After 3 min of ventricular fibrillation (sustained VF) hearts were defibrillated and myocardial function was recorded. The heart was considered to be in VF if an irregular undulating baseline was apparent on the ECG. […] In each instance, VT spontaneously switched to sinus rhythm or VF, therefore VT was considered non-sustained. The heart was considered to be in sinus rhythm if normal sinus complexes occurring in a regular rhythm were apparent on the ECG. Before ischemia and during reperfusion, heart rate (HR), coronary flow (CF) and aortic flow (AF) rates were registered. Left ventricular developed pressure (LVDP) which was defined as the difference between left ventricular systolic and end-diastolic pressure, and the first derivative of LVDP (+LVdp/dtmax) were also recorded (Experimetria, UK) by the insertion of a catheter into the left ventricle via the left atrium and mitral valve. […] Cardiac function data (HR, CF, AF, LVDP, and LVdp/dtmax), were expressed as the mean±SEM. One-way analysis of variance was first carried out, to test for any differences between the mean values of all groups. If differences were established, the values of the control, drug-free group were compared with those of the drug treated groups by a two-tailed t-test with the Bonferroni correction (Wallenstein et al., 1980, Circ. Res. 47:1-9). An analogue procedure was followed for distribution of discrete variables such as the incidence of VF and VT. An overall chi-square test for a 2×n table was constructed followed by a sequence of 2×2 chi-square tests to compare individual groups. A change of p<0.05 was considered significant.

isolated rat hearts [6] = test: Cardiac function of isolated working hearts of orally treated rats, 30 min global ischemia followed by reperfusion; type: ex vivo
Protocol: as §1

[7] = FK506 1 mg/kg/day oral 10 days, after 30-min reperfusion
[8] = FK506 1 mg/kg/day oral 10 days, after 60-min reperfusion
[9] = FK506 1 mg/kg/day oral 10 days, after 120-min reperfusion
[10] = FK506 5 mg/kg/day oral 10 days, after 30-min reperfusion
[11] = FK506 5 mg/kg/day oral 10 days, after 60-min reperfusion
[12] = FK506 5 mg/kg/day oral 10 days, after 120-min reperfusion
[13] = FK506 10 mg/kg/day oral 10 days, after 30-min reperfusion
[14] = FK506 10 mg/kg/day oral 10 days, after 60-min reperfusion
[15] = FK506 10 mg/kg/day oral 10 days, after 120-min reperfusion
[16] = FK506 20 mg/kg/day oral 10 days, after 30-min reperfusion
[17] = FK506 20 mg/kg/day oral 10 days, after 60-min reperfusion
[18] = FK506 20 mg/kg/day oral 10 days, after 120-min reperfusion
[19] = FK506 40 mg/kg/day oral 10 days, after 30-min reperfusion
[20] = FK506 40 mg/kg/day oral 10 days, after 60-min reperfusion
[21] = FK506 40 mg/kg/day oral 10 days, after 120-min reperfusion

platelet activating factor receptor (PAFR), sequence (P25105 whole entry, species assumed): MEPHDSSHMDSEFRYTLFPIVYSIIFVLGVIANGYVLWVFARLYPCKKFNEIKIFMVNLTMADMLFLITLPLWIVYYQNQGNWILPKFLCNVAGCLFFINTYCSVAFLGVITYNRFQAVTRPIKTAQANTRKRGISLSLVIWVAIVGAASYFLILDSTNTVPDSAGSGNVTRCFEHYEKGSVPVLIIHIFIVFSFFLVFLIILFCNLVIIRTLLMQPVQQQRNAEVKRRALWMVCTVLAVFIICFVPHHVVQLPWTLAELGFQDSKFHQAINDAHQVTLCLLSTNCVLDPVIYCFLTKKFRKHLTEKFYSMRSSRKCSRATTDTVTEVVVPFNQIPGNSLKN

C[C@@H]1C(=O)O[C@@H]2[C@H]1[C@@]13OC4OC(=O)[C@H](O)C45[C@H](C(C)(C)C)[C@@H](O)C(OC1=O)[C@]53[C@H]2O (some centres unmarked) [Ginkgolide M]
PAFR antagonist activity (in words) [1]: PAFR antagonist activity

O=c1cc(-c2ccc(O)c(O)c2)oc2cc(O[C@@H]3O[C@H](CO)[C@@H](O)[C@H](O)[C@H]3O)cc(O)c12 [luteolin-7-glucoside]
cardioprotective effects [2]: 186%

COc1ccc(NC(=S)N2CCc3c(sc4c3C(c3ccccc3Cl)=NCc3nnc(C)n3-4)C2)cc1 [BN 50730]
PAFR antagonistic activity compared to BN52021 ([1]; more potent than BN52021): up to several 10-fold

ginkgolide C
PAFR antagonist activity (in words) [1]: PAFR antagonist

Ginkgolide J
PAFR antagonist activity (in words) [1]: PAFR antagonist activity

COc1ccc(-c2cc(=O)c3c(O)cc(O)c(-c4cc(-c5cc(=O)c6c(O)cc(OC)cc6o5)ccc4OC)c3o2)cc1 [Sciadopitysin]
cAMP phosphodiesterase inhibitory activity (in words) [3]: almost inactive

C[C@@H]1C(=O)O[C@H]2C[C@@]34[C@H]5C[C@@H](C(C)(C)C)[C@]36[C@@H](OC(=O)[C@@H]6O)O[C@@]4(C(=O)O5)[C@]21O [Ginkgolide A]
PAFR antagonist activity (in words) [1]: PAFR antagonist

C=CC[C@@H]1/C=C(\C)C[C@H](C)C[C@H](OC)[C@H]2O[C@@](O)(C(=O)C(=O)N3CCCC[C@H]3C(=O)O[C@H](/C(C)=C/[C@@H]3CC[C@@H](O)[C@H](OC)C3)[C@H](C)[C@@H](O)CC1=O)[C@H](C)C[C@@H]2OC [FK506, tacrolimus]
plasma concentrations ([4]; continuous intravenous infusion, severe acute GVHD): 25 to 35 ng/mL
blood levels ([4]; low doses (0.1 mg/kg or less)): ~10 ng/mL
fraction of treated patients with greater than 1 year graft survival ([4]; low doses (0.1 mg/kg or less)): > 70%
incidence of reperfusion-induced total (irreversible plus reversible) VF (isolated rat hearts [5]; FK506 1 mg/kg/day oral 10 days): 92%
incidence of reperfusion-induced total (irreversible plus reversible) VF (isolated rat hearts [5]; FK506 5 mg/kg/day oral 10 days): 83%
incidence of reperfusion-induced total (irreversible plus reversible) VF (isolated rat hearts [5]; FK506 10 mg/kg/day oral 10 days): 67%
incidence of reperfusion-induced total (irreversible plus reversible) VF (isolated rat hearts [5]; FK506 20 mg/kg/day oral 10 days): 33%
incidence of reperfusion-induced total (irreversible plus reversible) VF (isolated rat hearts [5]; FK506 40 mg/kg/day oral 10 days): 25%
+dP/dtmax (isolated rat hearts [6]; [7]): 422 ± 28 kPa/s
AF (aortic flow) (isolated rat hearts [6]; [7]): 10.6 ± 0.4 mL/min
CF (coronary flow) (isolated rat hearts [6]; [7]): 18.2 ± 1.0 mL/min
HR (heart rate) (isolated rat hearts [6]; [7]): 315 ± 9 beats/min
LVDP (left ventricular developed pressure) (isolated rat hearts [6]; [7]): 10.7 ± 0.6 kPa
+dP/dtmax (isolated rat hearts [6]; [8]): 447 ± 26 kPa/s
CF (coronary flow) (isolated rat hearts [6]; [8]): 16.9 ± 0.9 mL/min
HR (heart rate) (isolated rat hearts [6]; [8]): 306 ± 8 beats/min
LVDP (left ventricular developed pressure) (isolated rat hearts [6]; [8]): 11.9 ± 0.5 kPa
AF (aortic flow) (isolated rat hearts [6]; FK506 1 mg/kg/day oral 10 days, after 60-min reperfusion, 1 mg/kg/day): 10.9 ± 1.8 mL/min
AF (aortic flow) (isolated rat hearts [6]; FK506 1 mg/kg/day oral 10 days, after 60-min reperfusion, listed as FK 506, 1 mg/kg/day): 10.9 ± 0.6 mL/min
+dP/dtmax (isolated rat hearts [6]; [9]): 432 ± 17 kPa/s
AF (aortic flow) (isolated rat hearts [6]; [9]): 10.1 ± 0.6 mL/min
CF (coronary flow) (isolated rat hearts [6]; [9]): 17.5 ± 0.7 mL/min
HR (heart rate) (isolated rat hearts [6]; [9]): 302 ± 9 beats/min
LVDP (left ventricular developed pressure) (isolated rat hearts [6]; [9]): 11.2 ± 0.3 kPa
+dP/dtmax (isolated rat hearts [6]; [10]): 430 ± 34 kPa/s
AF (aortic flow) (isolated rat hearts [6]; [10]): 12.0 ± 0.9 mL/min
CF (coronary flow) (isolated rat hearts [6]; [10]): 18.0 ± 1.1 mL/min
HR (heart rate) (isolated rat hearts [6]; [10]): 298 ± 7 beats/min
LVDP (left ventricular developed pressure) (isolated rat hearts [6]; [10]): 11.0 ± 0.4 kPa
+dP/dtmax (isolated rat hearts [6]; [11]): 463 ± 23 kPa/s
AF (aortic flow) (isolated rat hearts [6]; [11]): 13.3 ± 1.0 mL/min
CF (coronary flow) (isolated rat hearts [6]; [11]): 18.4 ± 0.7 mL/min
HR (heart rate) (isolated rat hearts [6]; [11]): 282 ± 7 beats/min
LVDP (left ventricular developed pressure) (isolated rat hearts [6]; [11]): 12.0 ± 0.7 kPa
+dP/dtmax (isolated rat hearts [6]; [12]): 451 ± 32 kPa/s
AF (aortic flow) (isolated rat hearts [6]; [12]): 11.2 ± 0.8 mL/min
CF (coronary flow) (isolated rat hearts [6]; [12]): 18.1 ± 0.8 mL/min
HR (heart rate) (isolated rat hearts [6]; [12]): 279 ± 8 beats/min
LVDP (left ventricular developed pressure) (isolated rat hearts [6]; [12]): 11.5 ± 0.4 kPa
+dP/dtmax (isolated rat hearts [6]; [13]): 478 ± 44^a kPa/s
AF (aortic flow) (isolated rat hearts [6]; [13]): 12.0 ± 1.2 mL/min
CF (coronary flow) (isolated rat hearts [6]; [13]): 20.0 ± 1.4 mL/min
HR (heart rate) (isolated rat hearts [6]; [13]): 308 ± 8 beats/min
LVDP (left ventricular developed pressure) (isolated rat hearts [6]; [13]): 11.5 ± 0.5 kPa
+dP/dtmax (isolated rat hearts [6]; [14]): 472 ± 32 kPa/s
AF (aortic flow) (isolated rat hearts [6]; [14]): 13.3 ± 1.2 mL/min
CF (coronary flow) (isolated rat hearts [6]; [14]): 19.6 ± 1.2 mL/min
HR (heart rate) (isolated rat hearts [6]; [14]): 310 ± 9 beats/min
LVDP (left ventricular developed pressure) (isolated rat hearts [6]; [14]): 12.3 ± 0.7 kPa
+dP/dtmax (isolated rat hearts [6]; [15]): 463 ± 29 kPa/s
AF (aortic flow) (isolated rat hearts [6]; [15]): 11.4 ± 0.7 mL/min
CF (coronary flow) (isolated rat hearts [6]; [15]): 18.8 ± 0.7 mL/min
HR (heart rate) (isolated rat hearts [6]; [15]): 307 ± 7 beats/min
LVDP (left ventricular developed pressure) (isolated rat hearts [6]; [15]): 11.7 ± 0.6 kPa
+dP/dtmax (isolated rat hearts [6]; [16]): 536 ± 28^a kPa/s
AF (aortic flow) (isolated rat hearts [6]; [16]): 17.4 ± 0.8^a ml/min
CF (coronary flow) (isolated rat hearts [6]; [16]): 23.1 ± 1.1^a ml/min
HR (heart rate) (isolated rat hearts [6]; [16]): 298 ± 9 beats/min
LVDP (left ventricular developed pressure) (isolated rat hearts [6]; [16]): 13.5 ± 0.6^a kPa
+dP/dtmax (isolated rat hearts [6]; [17]): 544 ± 31^a kPa/s
AF (aortic flow) (isolated rat hearts [6]; [17]): 19.8 ± 1.5^a ml/min
CF (coronary flow) (isolated rat hearts [6]; [17]): 22.0 ± 1.1^a ml/min
HR (heart rate) (isolated rat hearts [6]; [17]): 297 ± 8 beats/min
LVDP (left ventricular developed pressure) (isolated rat hearts [6]; [17]): 14.1 ± 0.6^a kPa
+dP/dtmax (isolated rat hearts [6]; [18]): 519 ± 26^a kPa/s
AF (aortic flow) (isolated rat hearts [6]; [18]): 17.3 ± 1.1^a ml/min
CF (coronary flow) (isolated rat hearts [6]; [18]): 21.2 ± 1.1^a ml/min
HR (heart rate) (isolated rat hearts [6]; [18]): 295 ± 6 beats/min
LVDP (left ventricular developed pressure) (isolated rat hearts [6]; [18]): 13.2 ± 0.5^a kPa
+dP/dtmax (isolated rat hearts [6]; [19]): 557 ± 31^a kPa/s
AF (aortic flow) (isolated rat hearts [6]; [19]): 20.6 ± 1.3^a ml/min
CF (coronary flow) (isolated rat hearts [6]; [19]): 24.7 ± 1.5^a ml/min
HR (heart rate) (isolated rat hearts [6]; [19]): 291 ± 7 beats/min
LVDP (left ventricular developed pressure) (isolated rat hearts [6]; [19]): 14.1 ± 0.6^a kPa
+dP/dtmax (isolated rat hearts [6]; [20]): 594 ± 26^a kPa/s
AF (aortic flow) (isolated rat hearts [6]; [20]): 22.9 ± 2.1^a ml/min
CF (coronary flow) (isolated rat hearts [6]; [20]): 23.5 ± 0.8^a ml/min
HR (heart rate) (isolated rat hearts [6]; [20]): 286 ± 9 beats/min
LVDP (left ventricular developed pressure) (isolated rat hearts [6]; [20]): 15.3 ± 0.6^a kPa
+dP/dtmax (isolated rat hearts [6]; [21]): 568 ± 33^a kPa/s
AF (aortic flow) (isolated rat hearts [6]; [21]): 20.0 ± 1.8^a ml/min
CF (coronary flow) (isolated rat hearts [6]; [21]): 22.8 ± 1.8^a ml/min
HR (heart rate) (isolated rat hearts [6]; [21]): 289 ± 8 beats/min
LVDP (left ventricular developed pressure) (isolated rat hearts [6]; [21]): 14.6 ± 0.6^a kPa
change of preischemic HR, CF, AF, LVDP and +LVdP/dtmax (in words) (isolated rat hearts [6]; FK506 treatment, before ischemia, versus drug-free group): No significant changes
